From patent US20240277746A1, “OPHTHALMIC NANO-DISPERSION COMPOSITION, A METHOD OF PREPARATION THEREOF, AND FORMULATION FOR CORNEAL EPITHELIAL WOUND HEALING” (THE UNIVERSITY OF JORDAN, priority 2021, published 2024)

Assays:
[1] = system: rabbit corneas subjected to epithelial debridement; test: Corneal epithelial healing in rabbit eyes; type: in vivo
Experimental: Rabbits were used to evaluate the ability of formulations to accelerate corneal epithelial wound healing in-vivo. Xylazine was used to induce analgesia in the rabbits with intramuscular injections of about 6 mg/kg. Proparacaine 0.5% weight/volume eye drops were also used as supplemental analgesia.
The eyes were kept open during the depredation using a speculum.
Using cotton buds, about 10% of alcohol was applied to the central regions of rabbit corneas for about 20 seconds. Then epithelia within an 8 mm diameter circle in were mechanically scraped using a blunt spatula. After that, eyes were washed several times using normal saline to remove scraped epithelial cells and residual alcohol that can induce corneal irritations.
The rabbits were divided into five treatment groups. Each group contained four animals. Right eyes were selected to receive normal saline while left eyes were assigned to receive the treatment.
The treatment was either about 200 μl (4 drops) of 5% ascorbic acid solution in 0.2 N sodium phosphate buffer pH 7.4, blank oily eye drops, AA as oily eye drops and AA-2G as oily eye drops.
The treatments were administered topically to the wounded eyes, along with topical ofloxacin antibiotic drops (Oflox, Allergan, Inc.), immediately following surgery and 6, 12, 24, 30, 36, 48, 54, 60 and 72-hour post-surgery.
Throughout the healing process, rabbits were closely monitored for evidence of distress or infection, and epithelial wound closure was examined at each dosing time point by applying about 50 μL of 0.25% topical fluorescein eye drops to the injured cornea and imaging the wound under cobalt blue light.
The area of each epithelial defect was measured using “ImageJ”, an image analysis software. Percent healing (“H %”) was calculated as a percentage of the initial wound area. According to the following equation: […]
Wherein Ai indicates the wound area at a given time point and A0 indicates the initial wound area.

[2] = Transcorneal permeation study, Franz-type diffusion cells; type: in vitro ADME, sheep; settings: AA-2G, mean ± SD, n = 3
Experimental: (§1) In vitro permeation and accumulation studies were performed on freshly excised sheep cornea obtained from a local slaughterhouse within an hour after the slaughter of the animals.
After the preparation of excised cornea, it was directly fixed between the donor and receptor compartments of Franz-type diffusion cells in such a way that its epithelial surface was facing the donor compartment and the endothelial surface was facing the receptor compartment.
The diameter of the diffusion area of the diffusion cells was 11 mm, producing an effective diffusion area of about 0.95 cm^2. The receptor compartment was filled with about 12 ml of normal saline solution stirred using teflon-coated magnetic stirring bars and maintained at a temperature of about 37° C. by circulating warm water through the water jacket around the receptor compartment. Special care was taken to expel air bubbles from the receptor fluid.
The permeation study was carried out by placing about 1 ml of either the prepared AA-2G loaded S/O nano-dispersion, AA-2G solution or normal saline on top of the cornea in the donor compartment.
An aliquot (about 0.3 ml) of the receptor fluid was withdrawn at about 0.5, 1, 1.5, 2, 3, 4, and 6 hours after beginning the experiment and replaced by an equal volume of fresh receptor solution. The receptor fluid content of AA-2G was determined quantitatively using the High-performance liquid chromatography (“HPLC”) method.

[3] = Corneal accumulation study (AA-2G entrapped within the corneal tissue after the permeation study); type: in vitro ADME, sheep; settings: Qr6 hr; AA-2G in corneal tissue; mean ± SD, n = 3
Experimental: as §1
To quantify the amount of AA-2G entrapped within the corneal tissue after finishing the in vitro permeation study, the diffusion cells were dismantled, the corneas were quickly washed with normal saline to remove the surface-attached AA-2G, then the diffusional areas were cut out and digested using about 0.5 ml of 0.5 M NaOH for about 12 hours at about 37° C. in a shaker incubator to obtain a solution. After that, about 0.5 ml of ethanol and about 1 ml of acetonitrile were added to this solution to precipitate the dissolved proteins. The samples were then centrifuged at about 8000 rpm for about 10 minutes. The supernatants were taken and diluted with the mobile phase for HPLC analysis.

Amount accumulated per unit area Qr (accumulation) [3] [μg/cm2]	Structure (SMILES)	relative healing rate (normalized to normal saline) ([1]; 6-hour)	relative healing rate (normalized to normal saline) ([1]; 12-hours)	% healing ([1]; after 6 hours, topical, rabbit, n=4) [%]	wound-healing rate enhancement vs control (normal saline) ([1]; first 6 hours)	effect on corneal epithelial healing ([1]; rabbit eyes, topical, vs normal saline)	Amount permeated per unit area Qt ([2]; Time 0.5 hr) [μg/cm2]	Amount permeated per unit area Qt ([2]; Time 1 hr) [μg/cm2]	Amount permeated per unit area Qt ([2]; Time 1.5 hr) [μg/cm2]	Amount permeated per unit area Qt ([2]; Time 2 hr) [μg/cm2]	Amount permeated per unit area Qt ([2]; Time 3 hr) [μg/cm2]	Amount permeated per unit area Qt ([2]; Time 4 hr) [μg/cm2]	Amount permeated per unit area Qt ([2]; Time 6 hr) [μg/cm2]
–	O=C1O[C@H]([C@@H](O)CO)C(O)=C1O [AA solution, ascorbic acid]	3.28	1.39	22.9	up to 3.28 folds	significantly increased	–	–	–	–	–	–	–
30.91 ± 1.04	O=C1O[C@H]([C@@H](O)CO)C(O)=C1O[C@H]1O[C@H](CO)[C@@H](O)[C@H](O)[C@H]1O [AA-2G solution, Ascorbyl glucoside]	–	–	–	–	–	0.00	0.00	0.00	0.00	4.56 ± 3.29	11.21 ± 3.67	41.02 ± 0.21
